Source: US20080085494A1, “Dental Compositions Containing Oxirane Monomers” (priority 2004, published 2008)

Key:
Assay type in all cases: cell-based
Settings in all cases: results to date
strain TA100 = test: Ames mutagenicity evaluation, strain TA100
Protocol: (§1) Ames mutagenicity evaluations of Compounds A-D were performed by the School of Pharmacy, University of Missouri at Kansas City (UMKC). Results to date have shown Compounds A, C, and D to be negative in strains TA100 and TA97A.

strain TA97A = test: Ames mutagenicity evaluation, strain TA97A
Protocol: as §1

strain TA1535 = test: Ames mutagenicity evaluation, strain TA1535
strain TA98 = test: Ames mutagenicity evaluation, strain TA98
strain TA102 = test: Ames mutagenicity evaluation, strain TA102

Row | Compound | Ames mutagenicity (strain TA100) | Ames mutagenicity (strain TA97A) | Ames mutagenicity (strain TA1535) | Ames mutagenicity (strain TA98) | Ames mutagenicity (strain TA102)
1 | c1ccc(OCCCCCOc2ccccc2CC2CO2)c(CC2CO2)c1 (centres unmarked) [Compound C, 1,5-Bis[2-(2,3-epoxypropyl)phenoxy]pentane] | negative | negative |  |  | 
2 | c1ccc(OCCCOc2ccccc2CC2CO2)c(CC2CO2)c1 (centres unmarked) [Compound B, 1,3-Bis[2-(2,3-epoxypropyl)phenoxy]propane] | negative | marginally positive | negative | negative | negative
3 | c1ccc(OCCCCCCOc2ccccc2CC2CO2)c(CC2CO2)c1 (centres unmarked) [Compound D, 1,6-Bis[2-(2,3-epoxypropyl)phenoxy]hexane] | negative | negative |  |  | 
4 | c1ccc(OCCCCCCCCCCOc2ccccc2CC2CO2)c(CC2CO2)c1 (centres unmarked) [Compound A, 1,10-Bis[2-(2,3-epoxypropyl)phenoxy]decane] | negative | negative |  |  | 
